Measurements from the CheMixHub viscosity set.

Experiment: xn = mol fraction of the nth substance listed

CC(=O)N(C)C + CCCCn1cc[n+](C)c1.F[B-](F)(F)F
101.33 kPa
Conditions | viscosity [mPa·s]
293.15 K, x2 = 0.8488 | 74.2
293.15 K, x2 = 0.9175 | 95.64
298.15 K, x2 = 0.9175 | 80.5
308.15 K, x2 = 0.437 | 7.88
323.15 K, x2 = 0.7419 | 9.78

C=CCn1cc[n+](C)c1.O=S(=O)([N-]S(=O)(=O)C(F)(F)F)C(F)(F)F + CCCO
Conditions | viscosity [mPa·s]
313.15 K, 100 kPa, x1 = 0.8974 | 15.85

CC(=O)N(C)C + CCCO
viscosity [mPa·s]
Conditions | 298.15 K | 303.15 K | 313.15 K
100 kPa, x1 = 0.0535 | 1.767 | – | 1.29
100 kPa, x1 = 0.1052 | 1.618 | – | 1.206
100 kPa, x1 = 0.2053 | 1.423 | – | 1.093
100 kPa, x1 = 0.3066 | 1.285 | – | 1.008
100 kPa, x1 = 0.407 | 1.197 | – | 0.948
100 kPa, x1 = 0.5061 | 1.143 | – | 0.904
100 kPa, x1 = 0.5984 | 1.097 | – | 0.8744
100 kPa, x1 = 0.701 | 1.045 | – | 0.8402
100 kPa, x1 = 0.8014 | 0.9977 | – | 0.8138
100 kPa, x1 = 0.9025 | 0.9648 | – | 0.7886
100 kPa, x1 = 0.9583 | 0.944 | – | 0.7749
101 kPa, x1 = 0.0966 | – | 1.47 | –
101 kPa, x1 = 0.1975 | – | 1.293 | –
101 kPa, x1 = 0.2992 | – | 1.193 | –
101 kPa, x1 = 0.3986 | – | 1.103 | –
101 kPa, x1 = 0.4894 | – | 1.048 | –
101 kPa, x1 = 0.6025 | – | 1 | –
101 kPa, x1 = 0.697 | – | 0.963 | –
101 kPa, x1 = 0.7955 | – | 0.93 | –
101 kPa, x1 = 0.9012 | – | 0.898 | –

CC(=O)N1CCOCC1 + CCCO
viscosity [mPa·s], 101 kPa
Conditions | 293.15 K | 303.15 K | 313.15 K | 323.15 K
x1 = 0.0542 | 3.211 | 2.607 | 2.089 | 1.678
x1 = 0.1279 | 4.268 | 3.591 | 2.958 | 2.472
x1 = 0.2156 | 5.382 | 4.614 | 3.842 | 3.268
x1 = 0.2811 | 6.079 | 5.246 | 4.369 | 3.728
x1 = 0.3166 | 6.397 | 5.529 | 4.598 | 3.925
x1 = 0.3902 | 6.922 | 5.978 | 4.928 | 4.183
x1 = 0.4533 | 7.294 | 6.294 | 5.142 | 4.331
x1 = 0.5022 | 7.478 | 6.414 | 5.189 | 4.331
x1 = 0.5437 | 7.679 | 6.578 | 5.289 | 4.388
x1 = 0.5983 | 7.857 | 6.703 | 5.329 | 4.375
x1 = 0.6341 | 7.889 | 6.699 | 5.267 | 4.277
x1 = 0.6883 | 8.018 | 6.776 | 5.259 | 4.214
x1 = 0.7442 | 8.069 | 6.769 | 5.161 | 4.062
x1 = 0.7912 | 8.099 | 6.748 | 5.069 | 3.922
x1 = 0.8542 | 8.178 | 6.766 | 4.986 | 3.776
x1 = 0.9165 | 8.328 | 6.851 | 4.972 | 3.702
x1 = 0.9776 | 8.508 | 7.001 | 5.093 | 3.823
